Data taken from patent publication US8497352B2, “Use of Wnt5-α peptide derivates for the treatment of melanoma and gastric cancer” (Wntresearch AB, priority 2008, dated 2013).
Where no end group is shown, it is not given here. The star is where a group is joined. For = O=C*

Experiments:
breast cancer metastasis = details: mouse model; cited from earlier work
breast cancer cell = details: breast tumor cells lacking endogenous Wnt-5a; cited from earlier work
A2058 melanoma cells = assay: Wound-healing assay (migration), A2058 cells; format: cell-based, human; details: 50 μM Foxy5, 0, 16, 24, 40 and 48 hours
Experimental: (§1) Cells were plated in 12 well plates and allowed to grow into a confluent layer in complete RPMI (for A2058 cells) or complete McCoy's 5A medium (for HTB63 cells). As indicated, cells were pre-incubated with the Box5 peptide (100 μM) or control solvent for 40 min with continuous agitation. A wound was then inflicted by making a scratch through the confluent layer of cells with a pipette tip. During the migration period of the assay, cells were incubated either in serum-free medium or in the case of HTB63 cells in their own serum-free-conditioned medium collected from cells cultured for 48 h and used within 2 days after collection. The exact conditions of each experiment are described above. To avoid loss of activity, cell medium was changed after 24 hours. A picture for each scratch was taken in the same area of cells at 0, 16, 24, 40 and 48 hours, and wound healing was measured as percentage of wound area closed. For each experimental condition wound healing was analysed in triplicate. All data were based on 3 to 8 separate experiments as indicated.

HTB63 melanoma cells [1] = assay: Wound-healing assay (migration), HTB63 cells; format: cell-based, human; details: 10 μM SB431542, serum-free medium
Experimental: as §1

HTB63 melanoma cells [2] = assay: BD Matrigel invasion chamber assay, HTB63 cells; format: cell-based, human; details: 10 μM SB431542, 24 hours
Experimental: Cell invasion was analyzed using the BD Matrigel™ invasion chamber assay (BD Biosciences, Bedford, Mass.). Prior to the initiation of each experiment, the cells were detached with Versene and re-suspended as single cells in serum-free RPMI medium. As indicated, cells were pre-incubated with the Box5 peptide (100 μM) or control solvent for 40 min with continuous agitation. An aliquot of the cell suspension containing 25,000 cells and 100 μM Box5 or control solvent was then added to the upper transwell chamber, and the lower chamber was filled with serum-containing (10%) medium. The invasion chambers were shaken horizontally for 5 min to ensure even distribution of the cells in suspension and subsequently across the membrane surface. The cells were allowed to invade for the periods of time indicated at 37° C. in a humidified atmosphere of 5% CO2. The medium was discarded and cells were fixed in 4% paraformaldehyde for 10 min. The cells were stained with 0.5% crystal violet in 20% methanol for 10 min and the non-invading cells on the inner side of the membrane were removed with a cotton-tipped applicator. The membrane was cut out of the chamber using a scalpel blade and the stained cells on the lower chamber side of the membrane were counted.

[3] = tested on: Wnt-5a protein expression; assay: Wnt-5a protein expression in HTB63 cells, Western blot; format: cell-based, human
Experimental: The cells were either directly lysed in 1× Laemmli buffer containing DTT and boiled for 10 min, or lysed in buffer containing 50 mM Tris-HCl (pH 7.5), 1% Triton X-100, 100 mM NaCl, 10 mM MgCl2, 20% glycerol, 1 mM Na3VO4, and protease inhibitors (20 μg/ml aprotinin, 1 μg/ml leupeptin, 2.5 mM benzamidine, and 2 mM pefabloc). Cell treated with lysis buffer were centrifuged at 15,000 rpm for 5 min at 4° C. The protein content in each sample was determined and adjusted to ensure equal loading of protein in each lane. Thereafter, 50 mM DTT and 5× concentrated Laemmli buffer was added and the samples boiled for 5 min. The samples were separated by SDS polyacrylamide gel electrophoresis and subsequently transferred to PVDF membranes. For immunoblotting the membranes were blocked in PBS supplemented with 0.2% Tween 20 and 1% non-fat milk for Wnt-5a or 3% non-fat milk as for all other antibodies for 1 h. Thereafter the membranes were incubated for 1 h at room temperature or overnight at 4° C. with the indicated primary Ab (1:25,000 for β-actin; 1:1,000 for Wnt-5a and 1:1,000 for TGF-β1) in 2% non-fat milk or 1.5% BSA. After extensive washing in PBS with 0.2% Tween, the membranes were incubated for 1 h with a horseradish peroxidase-conjugated secondary Ab in 2% non-fat milk or 1.5% BSA and again extensively washed. Finally, the Ab-antigen complexes were detected using enhanced chemiluminescence. […]

In the case of “Foxy5: Met-Asp-Gly-Cys-Glu-Leu hexapeptide formylated at the N-terminal Met, agonist of Wnt-5a signalling (For-MDGCEL)”, the Breast cancer metastasis (breast cancer metastasis) is listed as “inhibits”, the “Signaling and inhibition of breast cancer cell migration” value (breast cancer cell) is listed as “mimic the effects of Wnt-5a” and the “Effect on migration of A2058 cells” value (A2058 melanoma cells) is listed as “promotes”.

With `NC(=O)c1ccc(-c2nc(-c3ccc4c(c3)OCO4)c(-c3ccccn3)[nH]2)cc1` [SB431542] the “Effect on migration of HTB63 cells” value (HTB63 melanoma cells [1]) was “inhibited”, the “Effect on migration of HTB63 cells in the invasion assay” value (HTB63 melanoma cells [2]) was “stimulated” and the “Endogenous Wnt-5a protein expression in HTB63 cells” value ([3]; 10 μM SB431542, 4 days) was “significantly reduced”. The “Endogenous Wnt-5a protein expression in HTB63 cells” value ([3]; 10 μM SB431542, 5 days) was “almost abolished”.
